Converted amounts (≈) assume the structure as drawn. Blank lines part the entries; values can stand above or below the compound they belong to.
Columns and labels:
[1] = Phlebitis on repeated i.v. administration in rats; type: in vivo; details: doses double those of the sodium salt
Text: This feature would make S-(−)-9-fluoro-6,7-dihydro-8-(4-hydroxypiperidin-1-yl)-5-methyl-1-oxo-1H,5H- benzo[i,j]quinolizine-2-carboxylic acid arginine salt 0.25 H2O and S-(−)-9-fluoro-6,7-dihydro-8-[4-(hydroxy)-1-piperidin-1-yl)-5-methyl-1-oxo-1H,5H-benzo[i,j]quinolizine-2-carboxylic acid arginine salt 0.75 H2O suitable for long term i.v. administration which is commonly undertaken for critically ill patients or patients in intensive care unit.

[2] = tested on: S.aureus strain bearing Nor A efflux pump; type: cell-based; details: Nor A efflux pump strain vs strain devoid of efflux pump
Experimental: Using this set of MIC values, % loss in potency due to efflux was calculated for each of the fluoroquinolone in Table 5

MRSE STE-22 = assay: In-vitro antimicrobial activity test (MIC, NCCLS); type: cell-based, Staphylococcus epidermidis
Text: (§1) The test method was in accordance with the standard NCCLS protocol.

Pseudomonas aeruginosa = assay: In-vitro antimicrobial activity test (MIC, NCCLS); type: cell-based
Text: as §1

[3] = tested on: Staphylococcus aureus ATCC 25923; assay: In-vitro antimicrobial activity test (MIC, NCCLS); type: cell-based
Text: as §1

Corynebacterium jeikeium = assay: In-vitro antimicrobial activity test (MIC, NCCLS); type: cell-based
Text: as §1

Haemophilus influenzae = assay: In-vitro antimicrobial activity test (MIC, NCCLS); type: cell-based
Text: as §1

Serratia marcescens = assay: In-vitro antimicrobial activity test (MIC, NCCLS); type: cell-based
Text: as §1

[4] = tested on: Viridans group Streptococci; assay: In-vitro antimicrobial activity test (MIC, NCCLS); type: cell-based
Text: as §1

[5] = tested on: Mycobacterium tuberculosis ATCC 27294; assay: In-vitro antimicrobial activity test (MIC, NCCLS); type: cell-based
Text: as §1

Propioni bacterium acnes = assay: In-vitro antimicrobial activity test (MIC, NCCLS); type: cell-based
Text: as §1

Bacteroides fragilis = assay: In-vitro antimicrobial activity test (MIC, NCCLS); type: cell-based
Text: as §1

[6] = tested on: Enterococcus faecalis ATCC 29212; assay: In-vitro antimicrobial activity test (MIC, NCCLS); type: cell-based
Text: as §1

[7] = tested on: Mycobacterium intracellulare; assay: In-vitro antimicrobial activity test (MIC, NCCLS); type: cell-based
Text: as §1

Mycobacterium avium = assay: In-vitro antimicrobial activity test (MIC, NCCLS); type: cell-based
Text: as §1

[8] = tested on: Escherichia coli ATCC 25922; assay: In-vitro antimicrobial activity test (MIC, NCCLS); type: cell-based
Text: as §1

[9] = tested on: Chryseobacterium meningosepticum; assay: In-vitro antimicrobial activity test (MIC, NCCLS); type: cell-based
Text: as §1

[10] = tested on: Streptococcus pneumoniae ATCC 6303; assay: In-vitro antimicrobial activity test (MIC, NCCLS); type: cell-based
Text: as §1

Enterococcus faecium = assay: In-vitro antimicrobial activity test (MIC, NCCLS); type: cell-based
Text: as §1

Streptococcus pyogenes = assay: In-vitro antimicrobial activity test (MIC, NCCLS); type: cell-based
Text: as §1

MRSA STA-4 = assay: In-vitro antimicrobial activity test (MIC, NCCLS); type: cell-based, Staphylococcus aureus
Text: as §1

[11] = tested on: Mupirocin-resistant Staph STA-34; assay: In-vitro antimicrobial activity test (MIC, NCCLS); type: cell-based, Staphylococcus aureus
Text: as §1

Serratia marcescens 2702 = assay: Effect of pH on potency of fluoroquinolones (MIC at pH 5.5 and 7.0); type: cell-based; details: MIC pH 7 vs pH 5.5
Text: (§2) The test method was in accordance with the standard NCCLS protocol employing test media adjusted at pH 5.5 and 7.0.

P. rettgeri N 1764 = assay: as above; type: cell-based; details: MIC pH 7 vs pH 5.5
Text: as §2

E. faecalis = assay: as above; type: cell-based; details: MIC pH 7 vs pH 5.5
Text: as §2

E. coli 25922 = assay: as above; type: cell-based; details: MIC pH 7 vs pH 5.5
Text: as §2

P. vulgaris 66 = assay: as above; type: cell-based; details: MIC pH 7 vs pH 5.5
Text: as §2

S. aureus 1199-B = assay: as above; type: cell-based; details: MIC pH 7 vs pH 5.5
Text: as §2

Klebsiella 24037 = assay: as above; type: cell-based; details: MIC pH 7 vs pH 5.5
Text: as §2

S. aureus 25923 = assay: as above; type: cell-based; details: MIC pH 7 vs pH 5.5
Text: as §2

Ps. Aeruginosa = assay: as above; type: cell-based; details: MIC pH 7 vs pH 5.5
Text: as §2

Acinetobacter 3109 = assay: as above; type: cell-based; details: MIC pH 7 vs pH 5.5
Text: as §2

P. mirabilis 37 = assay: as above; type: cell-based; details: MIC pH 7 vs pH 5.5
Text: as §2

E. coli 2015 = assay: as above; type: cell-based; details: MIC pH 7 vs pH 5.5
Text: as §2

Phototoxicity studies = details: in vivo

Compound: C[C@H]1CCc2c(N3CCC(O)CC3)c(F)cc3c(=O)c(C(=O)O)cn1c23.N=C(N)NCCC[C@H](N)C(=O)O.O [Example 7, S-(−)-9-fluoro-6,7-dihydro-8-(4-hydroxypiperidin-1-yl)-5-methyl-1-oxo-1H,5H-benzo[i,j]quinolizine-2-carboxylic acid, arginine salt 0.25 H2O]
phlebitis [1]: did not cause phlebitis

Compound: COc1c(N2CCNC(C)C2)c(F)cc2c(=O)c(C(=O)O)cn(C3CC3)c12 (stereo not drawn) [Gatifloxacin]
% loss in potency for S. aureus bearing Efflux pump [2]: 75%

Compound: CO/N=C1\CN(c2nc3c(cc2F)c(=O)c(C(=O)O)cn3C2CC2)CC1CN (stereo not drawn) [Gemifloxacin]
% loss in potency for S. aureus bearing Efflux pump [2]: 75%

Compound: C[C@H]1COc2c(N3CCN(C)CC3)c(F)cc3c(=O)c(C(=O)O)cn1c23 [Levofloxacin]
MIC (MRSE STE-22): > 12.5 µg/mL
MIC (Pseudomonas aeruginosa): 3.12 µg/mL (≈ 8.63 µM)
MIC [3]: 0.2 µg/mL (≈ 0.553 µM)
MIC (Corynebacterium jeikeium): 0.4 µg/mL (≈ 1.11 µM)
MIC (Haemophilus influenzae): 0.03 µg/mL (≈ 0.083 µM)
MIC (Serratia marcescens): 0.1 µg/mL (≈ 0.277 µM)
MIC [4]: 1.56 µg/mL (≈ 4.32 µM)
MIC [5]: 0.4 µg/mL (≈ 1.11 µM)
MIC (Propioni bacterium acnes): 1 µg/mL (≈ 2.77 µM)
MIC (Bacteroides fragilis): 6.25 µg/mL (≈ 17.3 µM)
MIC [6]: 0.8 µg/mL (≈ 2.21 µM)
MIC [7]: 0.8 µg/mL (≈ 2.21 µM)
MIC (Mycobacterium avium): 12.5 µg/mL (≈ 34.6 µM)
MIC [8]: 0.05 µg/mL (≈ 0.138 µM)
MIC [9]: 6.25 µg/mL (≈ 17.3 µM)
MIC [10]: 0.8 µg/mL (≈ 2.21 µM)
MIC (Enterococcus faecium): 1.56 µg/mL (≈ 4.32 µM)
MIC (Streptococcus pyogenes): 0.4 µg/mL (≈ 1.11 µM)
MIC (MRSA STA-4): > 12.5 µg/mL
MIC [11]: 12.5 µg/mL (≈ 34.6 µM)
% change in potency at pH 5.5, loss (−)/gain (+) (Serratia marcescens 2702): −98%
% change in potency at pH 5.5, loss (−)/gain (+) (P. rettgeri N 1764): −94%
% change in potency at pH 5.5, loss (−)/gain (+) (E. faecalis): −75%
% change in potency at pH 5.5, loss (−)/gain (+) (E. coli 25922): −96%
% change in potency at pH 5.5, loss (−)/gain (+) (P. vulgaris 66): −94%
% change in potency at pH 5.5, loss (−)/gain (+) (S. aureus 1199-B): −75%
% change in potency at pH 5.5, loss (−)/gain (+) (Klebsiella 24037): −94%
% change in potency at pH 5.5, loss (−)/gain (+) (S. aureus 25923): −75%
% change in potency at pH 5.5, loss (−)/gain (+) (Ps. Aeruginosa): −50%
% change in potency at pH 5.5, loss (−)/gain (+) (Acinetobacter 3109): −94%
% change in potency at pH 5.5, loss (−)/gain (+) (P. mirabilis 37): −94%
% change in potency at pH 5.5, loss (−)/gain (+) (E. coli 2015): −87.5%

MIC (MRSE STE-22): 0.2 µg/mL (≈ 0.399 µM)
MIC [3]: 0.4 µg/mL (≈ 0.799 µM)
MIC (Corynebacterium jeikeium): > 12.5 µg/mL
MIC [4]: 0.2 µg/mL (≈ 0.399 µM)
MIC (Propioni bacterium acnes): > 1000 µg/mL
MIC [6]: > 12.5 µg/mL
MIC [10]: 0.2 µg/mL (≈ 0.399 µM)
MIC (Enterococcus faecium): > 0.8 µg/mL
MIC (Streptococcus pyogenes): 0.025 µg/mL (≈ 0.0499 µM)
MIC (MRSA STA-4): 0.4 µg/mL (≈ 0.799 µM)
MIC [11]: > 400 µg/mL
Compound: C/C(=C\C(=O)OCCCCCCCCC(=O)O)C[C@@H]1OC[C@H](C[C@@H]2O[C@H]2[C@@H](C)[C@H](C)O)[C@@H](O)[C@H]1O [Mupirocin]

Compound: CCn1cc(C(=O)O)c(=O)c2cc(F)c(N3CCNCC3)cc21 [Norfloxacin]
% loss in potency for S. aureus bearing Efflux pump [2]: 97%

Compound: C[C@@H]1CN(c2c(F)c(N)c3c(=O)c(C(=O)O)cn(C4CC4)c3c2F)C[C@H](C)N1 [Sparfloxacin]
phototoxic dosage, times lower than S-(−)-Nadifloxacin (Phototoxicity studies): 25 times
